In ChEMBL document CHEMBL1201862, “PubChem BioAssay data set” (2004):
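Briefly, cells in 96-well plates were exposed to five compound concentrations for 48 h, and endpoints were estimated by linear interpolation. GI50: concentration for 50% inhibition of growth.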 The source made the active and inactive calls. Cut-off read from the data, not from the text of the source: active = GI50 up to about 1.1 µM and inactive = higher.

What was measured:
Experiment in all cases: growth of human tumour cells (NCI), 48 h
UO-31 = tested on: UO-31
UACC-257 = tested on: UACC-257
SK-OV-3 = tested on: SK-OV-3
SN12C = tested on: SN12C
OVCAR-8 = tested on: OVCAR-8
SF-295 = tested on: SF-295
HOP-62 = tested on: HOP-62
SNB-75 = tested on: SNB-75
HT-29 = tested on: HT-29
NCI-H226 = tested on: NCI-H226
U-251 = tested on: U-251
IGROV-1 = tested on: IGROV-1
SR = tested on: SR
M14 = tested on: M14
UACC-62 = tested on: UACC-62
SNB-19 = tested on: SNB-19
LOX IMVI = tested on: LOX IMVI
SK-MEL-2 = tested on: SK-MEL-2
MDA-MB-435 = tested on: MDA-MB-435

Measured: GI50

CSc1ccc(-c2cn3ccsc3n2)c(O)c1
inactive: UO-31 59.8 µM | UACC-257 > 24.2 µM | SK-OV-3 > 82.4 µM | SN12C > 79.1 µM | OVCAR-8 > 89.9 µM | SF-295 39 µM | HOP-62 49.9 µM | SNB-75 35.6 µM | HT-29 83.2 µM | NCI-H226 > 100 µM | U-251 46 µM | IGROV-1 > 100 µM | SR 40.6 µM | M14 > 59.6 µM | UACC-62 69.7 µM | SNB-19 > 61.5 µM | LOX IMVI 20 µM | SK-MEL-2 > 85.3 µM

O=C1NC2C(CCO)CC=C[C@H]2c2cc3c(cc21)OCO3 (some centres not stated)
inactive: UO-31 > 100 µM | UACC-257 > 100 µM | SK-OV-3 > 100 µM | SN12C > 100 µM | OVCAR-8 > 100 µM | SF-295 > 100 µM | HOP-62 > 100 µM | SNB-75 > 100 µM | HT-29 > 100 µM | NCI-H226 75.3 µM | U-251 > 100 µM | IGROV-1 > 100 µM | SR > 100 µM | M14 > 100 µM | UACC-62 > 100 µM | SNB-19 > 100 µM | LOX IMVI > 100 µM

CCC(O)CCCCCCCCCCCCCCC(=O)O (configuration not stated)
inactive: UO-31 > 100 µM | UACC-257 > 100 µM | SK-OV-3 > 100 µM | SN12C > 100 µM | OVCAR-8 > 100 µM | SF-295 > 100 µM | HOP-62 > 100 µM | SNB-75 > 100 µM | HT-29 40.8 µM | NCI-H226 > 100 µM | U-251 > 100 µM | IGROV-1 > 100 µM | SR 49.9 µM | M14 > 100 µM | UACC-62 > 100 µM | SNB-19 > 100 µM | LOX IMVI > 10 µM | SK-MEL-2 > 100 µM

Cc1ccc(NC(=O)CC/C(CC(=O)C(C)(C)C)=N/Nc2nnc(C)n2N)cc1C
inactive: UO-31 > 100 µM | UACC-257 > 100 µM | SK-OV-3 > 100 µM | SN12C > 100 µM | OVCAR-8 > 100 µM | SF-295 > 100 µM | HOP-62 > 100 µM | SNB-75 > 100 µM | HT-29 > 100 µM | NCI-H226 > 100 µM | U-251 > 100 µM | IGROV-1 > 100 µM | SR 94.8 µM | M14 > 100 µM | UACC-62 > 100 µM | SNB-19 > 100 µM | LOX IMVI > 100 µM | SK-MEL-2 > 100 µM

CCOC(=O)c1cnc2c(ccc3ncccc32)c1OCC
inactive: UO-31 > 100 µM | UACC-257 > 100 µM | SK-OV-3 > 100 µM | SN12C > 100 µM | OVCAR-8 > 100 µM | HOP-62 > 100 µM | SNB-75 > 100 µM | HT-29 > 100 µM | NCI-H226 > 100 µM | U-251 > 100 µM | IGROV-1 > 100 µM | SR 70.6 µM | M14 > 100 µM | UACC-62 > 100 µM | SNB-19 > 100 µM | LOX IMVI > 100 µM | SK-MEL-2 > 100 µM

CN(C)CCN1N=Nc2cccc3cccc1c23
inactive: UO-31 > 100 µM | UACC-257 > 100 µM | SK-OV-3 > 100 µM | SN12C > 55.5 µM | OVCAR-8 97.9 µM | SF-295 > 100 µM | HOP-62 > 100 µM | SNB-75 > 100 µM | HT-29 45.6 µM | NCI-H226 > 100 µM | U-251 > 100 µM | IGROV-1 > 100 µM | SR 15.7 µM | M14 > 100 µM | UACC-62 > 100 µM | SNB-19 > 100 µM | LOX IMVI 83.8 µM | SK-MEL-2 > 100 µM

CC1(C)COC(c2ccc(C(=O)c3ccc(Cl)cc3)cc2)=N1
inactive: UO-31 58.7 µM | UACC-257 10.7 µM | SK-OV-3 > 100 µM | SN12C > 100 µM | OVCAR-8 84.9 µM | SF-295 65.2 µM | HOP-62 > 100 µM | SNB-75 > 100 µM | HT-29 > 100 µM | MDA-MB-435 44.5 µM | NCI-H226 23 µM | U-251 > 100 µM | IGROV-1 > 100 µM | M14 > 100 µM | UACC-62 > 100 µM | SNB-19 > 100 µM | LOX IMVI > 100 µM | SK-MEL-2 > 100 µM

COC(=O)c1cc(-c2ccc(OC)c(OC)c2)oc1-c1ccc(OC)c(OC)c1
inactive: UO-31 35.6 µM | UACC-257 37.6 µM | SK-OV-3 38.9 µM | SN12C 26.8 µM | OVCAR-8 44.6 µM | SF-295 23.8 µM | HOP-62 35.7 µM | SNB-75 33.5 µM | HT-29 35.8 µM | NCI-H226 34.3 µM | U-251 30.6 µM | IGROV-1 45.5 µM | SR 28.6 µM | M14 55.8 µM | UACC-62 70.1 µM | LOX IMVI 28.1 µM | SK-MEL-2 44.9 µM

[N-]=[N+]=Nc1ccccc1Oc1ccccc1
inactive: UO-31 > 100 µM | UACC-257 > 100 µM | SK-OV-3 > 100 µM | SN12C > 100 µM | OVCAR-8 > 100 µM | SF-295 > 100 µM | HOP-62 > 100 µM | SNB-75 > 100 µM | HT-29 > 100 µM | NCI-H226 > 100 µM | U-251 > 100 µM | IGROV-1 > 100 µM | SR > 100 µM | M14 > 100 µM | UACC-62 > 100 µM | SNB-19 > 100 µM | LOX IMVI > 100 µM | SK-MEL-2 > 100 µM

CN(C)c1ccc(C(C#N)NNC(=O)Cc2ccccc2)cc1 (configuration not stated)
inactive: UO-31 > 100 µM | UACC-257 > 100 µM | SK-OV-3 > 100 µM | SN12C > 100 µM | OVCAR-8 > 100 µM | SF-295 > 100 µM | HOP-62 > 100 µM | SNB-75 > 100 µM | HT-29 > 100 µM | NCI-H226 > 100 µM | U-251 > 100 µM | IGROV-1 > 100 µM | SR > 100 µM | M14 > 100 µM | UACC-62 > 100 µM | LOX IMVI > 100 µM | SK-MEL-2 > 100 µM

Cc1ccc(C(=O)C2=CN=C3C(=O)N(c4ccccc4)N(C)C3(C)C2=N)cc1 (configuration not stated)
inactive: UO-31 > 100 µM | UACC-257 > 100 µM | SK-OV-3 > 100 µM | SN12C > 100 µM | OVCAR-8 > 100 µM | SF-295 > 100 µM | SNB-75 > 100 µM | MDA-MB-435 > 100 µM | NCI-H226 > 100 µM | U-251 > 100 µM | IGROV-1 > 100 µM | SR > 100 µM | M14 > 100 µM | UACC-62 > 100 µM | LOX IMVI > 100 µM | SK-MEL-2 > 100 µM

CC(C)c1cccc(=O)c(O)c1 [HINOKITIOL]
inactive: UO-31 10.5 µM | UACC-257 4.1 µM | SK-OV-3 49.4 µM | SN12C 11.2 µM | OVCAR-8 4.45 µM | SF-295 6.52 µM | HOP-62 10.9 µM | SNB-75 24.4 µM | HT-29 4.27 µM | NCI-H226 11 µM | U-251 9.12 µM | IGROV-1 13.5 µM | SR 2.84 µM | M14 8.49 µM | UACC-62 5.79 µM | SNB-19 10.9 µM | LOX IMVI 5.06 µM | SK-MEL-2 12.1 µM

CC(C)(C)C1CCC2c3c([nH]c4ncccc34)C3C(=O)N(c4ccccc4)C(=O)C3C2C1 (configuration not stated)
inactive: UO-31 > 100 µM | UACC-257 > 100 µM | SK-OV-3 > 100 µM | SN12C 88.1 µM | OVCAR-8 99.3 µM | SF-295 > 100 µM | HOP-62 > 100 µM | SNB-75 24.6 µM | HT-29 > 100 µM | NCI-H226 > 100 µM | U-251 > 100 µM | IGROV-1 > 100 µM | SR 36.1 µM | M14 > 100 µM | UACC-62 > 100 µM | SNB-19 > 100 µM | LOX IMVI > 100 µM | SK-MEL-2 > 100 µM

O=C1C2=C(CC3C(C2)C3(Br)Br)C(=O)C2=C1CC1C(C2)C1(Br)Br (configuration not stated)
inactive: UO-31 > 100 µM | UACC-257 > 100 µM | SK-OV-3 > 100 µM | SN12C > 100 µM | OVCAR-8 > 100 µM | SF-295 > 100 µM | HOP-62 > 100 µM | SNB-75 > 100 µM | HT-29 > 100 µM | NCI-H226 > 100 µM | U-251 > 100 µM | IGROV-1 > 100 µM | SR > 100 µM | M14 > 100 µM | UACC-62 > 100 µM | SNB-19 > 100 µM | LOX IMVI 82.4 µM | SK-MEL-2 > 100 µM

CC(N)C(C)c1ccccc1 (configuration not stated)
inactive: UO-31 > 100 µM | UACC-257 > 100 µM | SK-OV-3 > 100 µM | SN12C > 100 µM | OVCAR-8 > 100 µM | SF-295 > 100 µM | HOP-62 > 100 µM | SNB-75 > 100 µM | HT-29 > 100 µM | NCI-H226 > 100 µM | U-251 > 100 µM | IGROV-1 > 100 µM | SR > 100 µM | M14 > 100 µM | UACC-62 > 100 µM | SNB-19 > 100 µM | LOX IMVI > 100 µM | SK-MEL-2 > 100 µM

O=c1c(Br)cc2nc3ccccc3sc-2c1Br
inactive: UO-31 > 100 µM | UACC-257 31.3 µM | SK-OV-3 > 100 µM | SN12C > 100 µM | OVCAR-8 19.5 µM | SF-295 > 100 µM | HOP-62 > 100 µM | SNB-75 > 100 µM | HT-29 > 100 µM | NCI-H226 > 100 µM | U-251 > 80.7 µM | IGROV-1 > 100 µM | SR 53.5 µM | M14 > 100 µM | UACC-62 25 µM | SNB-19 > 100 µM | LOX IMVI 61.7 µM | SK-MEL-2 > 100 µM
